Laboratory results: PubChem BioAssay AID1259407 (Chemical Carcinogenesis Research Information System (CCRIS), 2018)
Active and inactive are the calls of the source. The rule behind the calls is not given here.

Tested on: CCRIS mutagenicity, Ames/micronucleus/aberration tests
Assay: CCRIS mutagenicity studies
[1] = Test System: AMES SALMONELLA TYPHIMURIUM, Strain/Indicator: TA100, Metabolic Activation: NONE, Method: PREINCUBATION
[2] = Test System: AMES SALMONELLA TYPHIMURIUM, Strain/Indicator: TA98, Metabolic Activation: NONE, Method: STANDARD PLATE
[3] = Test System: AMES SALMONELLA TYPHIMURIUM, Strain/Indicator: TA98, Metabolic Activation: RAT, LIVER, S-9, AROCLOR 1254, Method: STANDARD PLATE
[4] = Test System: AMES SALMONELLA TYPHIMURIUM, Strain/Indicator: TA100, Metabolic Activation: RAT, LIVER, S-9, AROCLOR 1254, Method: STANDARD PLATE
[5] = Test System: AMES SALMONELLA TYPHIMURIUM, Strain/Indicator: TA100, Metabolic Activation: NONE, Method: STANDARD PLATE

CN(CC(O)CO)N=O (centres undefined)
mutagenic call (Test System: AMES SALMONELLA TYPHIMURIUM, Strain/Indicator: TA100, Metabolic Activation: HAMSTER, LIVER, S-9, 3-METHYLCHOLANTHRENE, Method: PREINCUBATION): active; positive
mutagenic call (Test System: AMES SALMONELLA TYPHIMURIUM, Strain/Indicator: TA100, Metabolic Activation: HAMSTER, LIVER, S-9, PHENOBARBITAL, Method: PREINCUBATION): active; positive
mutagenic call (Test System: AMES SALMONELLA TYPHIMURIUM, Strain/Indicator: TA100, Metabolic Activation: HAMSTER, LIVER, S-9, Method: PREINCUBATION): active; positive
mutagenic call (Test System: AMES SALMONELLA TYPHIMURIUM, Strain/Indicator: TA100, Metabolic Activation: MOUSE, LIVER, S-9, 3-METHYLCHOLANTHRENE, Method: PREINCUBATION): active; positive
mutagenic call (Test System: AMES SALMONELLA TYPHIMURIUM, Strain/Indicator: TA100, Metabolic Activation: MOUSE, LIVER, S-9, PHENOBARBITAL, Method: PREINCUBATION): active; positive
mutagenic call (Test System: AMES SALMONELLA TYPHIMURIUM, Strain/Indicator: TA100, Metabolic Activation: MOUSE, LIVER, S-9, Method: PREINCUBATION): active; positive
mutagenic call [1]: inactive; negative
mutagenic call (Test System: AMES SALMONELLA TYPHIMURIUM, Strain/Indicator: TA100, Method: PREINCUBATION): active; positive

c1ccc2c(c1)-c1cccc3cc4ccccc4c-2c13
mutagenic call [2]: inactive; negative
mutagenic call [3]: inactive; negative
mutagenic call [4]: active; positive

O=C(O)c1ccccn1
mutagenic call (Test System: AMES SALMONELLA TYPHIMURIUM, Strain/Indicator: TA98, Metabolic Activation: HAMSTER, LIVER, S-9, AROCLOR 1254, Method: STANDARD PLATE): inactive; negative
mutagenic call [2]: inactive; negative
mutagenic call [3]: inactive; negative
mutagenic call (Test System: AMES SALMONELLA TYPHIMURIUM, Strain/Indicator: TA100, Metabolic Activation: HAMSTER, LIVER, S-9, AROCLOR 1254, Method: STANDARD PLATE): inactive; negative
mutagenic call [5]: inactive; negative
mutagenic call [4]: inactive; negative
mutagenic call (Test System: AMES SALMONELLA TYPHIMURIUM, Strain/Indicator: TA1535, Metabolic Activation: HAMSTER, LIVER, S-9, AROCLOR 1254, Method: STANDARD PLATE): inactive; negative
mutagenic call (Test System: AMES SALMONELLA TYPHIMURIUM, Strain/Indicator: TA1535, Metabolic Activation: NONE, Method: STANDARD PLATE): inactive; negative
mutagenic call (Test System: AMES SALMONELLA TYPHIMURIUM, Strain/Indicator: TA1535, Metabolic Activation: RAT, LIVER, S-9, AROCLOR 1254, Method: STANDARD PLATE): inactive; negative
mutagenic call (Test System: AMES SALMONELLA TYPHIMURIUM, Strain/Indicator: TA1537, Metabolic Activation: HAMSTER, LIVER, S-9, AROCLOR 1254, Method: STANDARD PLATE): inactive; negative
mutagenic call (Test System: AMES SALMONELLA TYPHIMURIUM, Strain/Indicator: TA1537, Metabolic Activation: NONE, Method: STANDARD PLATE): inactive; negative
mutagenic call (Test System: AMES SALMONELLA TYPHIMURIUM, Strain/Indicator: TA1537, Metabolic Activation: RAT, LIVER, S-9, AROCLOR 1254, Method: STANDARD PLATE): inactive; negative
mutagenic call (Test System: CHINESE HAMSTER OVARY CELLS, Strain/Indicator: CHO CELLS (HPRT)/6-THIOGUANINE, Metabolic Activation: NONE, Method: STANDARD PLATE): inactive; negative
mutagenic call (Test System: MOUSE LYMPHOMA CELLS, Strain/Indicator: L5178Y TK+/-, Metabolic Activation: NONE, Method: TFT RESISTANCE): inactive; negative
mutagenic call (Test System: MOUSE LYMPHOMA CELLS, Strain/Indicator: L5178Y TK+/-, Metabolic Activation: RAT, LIVER, S-9, AROCLOR 1254, Method: TFT RESISTANCE): inactive; negative
mutagenic call (Test System: MOUSE LYMPHOMA, Strain/Indicator: L5178Y (TK+/TK-), Metabolic Activation: NONE, Method: SUSPENSION/PLATE): active; positive. reevaluation of results: equivocal
mutagenic call (Test System: MOUSE LYMPHOMA, Strain/Indicator: L5178Y (TK+/TK-), Metabolic Activation: RAT, LIVER, S-9, AROCLOR 1254, Method: SUSPENSION/PLATE): active; positive. reevaluation of results: equivocal

O=CC1C=COC=C1
mutagenic call [2]: inactive; negative
mutagenic call (Test System: AMES SALMONELLA TYPHIMURIUM, Strain/Indicator: TA98, Metabolic Activation: RAT, LIVER, S-9, PHENOBARBITAL, Method: STANDARD PLATE): inactive; negative
mutagenic call [5]: inactive; negative
mutagenic call (Test System: AMES SALMONELLA TYPHIMURIUM, Strain/Indicator: TA100, Metabolic Activation: RAT, LIVER, S-9, PHENOBARBITAL, Method: STANDARD PLATE): inactive; negative
mutagenic call (Test System: AMES SALMONELLA TYPHIMURIUM, Strain/Indicator: TM677/8-AZAGUANINE, Metabolic Activation: NONE, Method: STANDARD PLATE): inactive; negative

COc1ccc(Cc2nccc3cc(OC)c(OC)cc23)cc1OC
mutagenic call (Test System: AMES SALMONELLA TYPHIMURIUM, Strain/Indicator: TA100, Metabolic Activation: RAT, LIVER, S-9, PHENOBARBITAL AND BETA-NAPHTHOFLAVONE, Method: PREINCUBATION): active; positive

O[C@@H]1[C@H]2O[C@H]2c2c(ccc3c2ccc2ccccc23)[C@H]1O
mutagenic call (Test System: AMES SALMONELLA TYPHIMURIUM, Strain/Indicator: TA97, Metabolic Activation: NONE, Method: PREINCUBATION): active; positive
mutagenic call (Test System: AMES SALMONELLA TYPHIMURIUM, Strain/Indicator: TA98, Metabolic Activation: NONE, Method: PREINCUBATION): active; positive
mutagenic call [1]: active; positive
mutagenic call (Test System: AMES SALMONELLA TYPHIMURIUM, Strain/Indicator: TA104, Metabolic Activation: NONE, Method: PREINCUBATION): active; positive
mutagenic call (Test System: CHINESE HAMSTER V-79, Strain/Indicator: V-79/6-THIOGUANINE, Metabolic Activation: NONE, Method: STANDARD PLATE): active; positive
